This passage reports chromatographic logP and LogP results from patent US20200045972A1, “NOVEL 5-SUBSTITUTED IMIDAZOLYLMETHYL DERIVATIVES” (Bayer CropScience Aktiengesellschaft, priority 2016, published 2020).

A short description of this data set: Measurement of LogP values by HPLC on reversed phase columns (EEC directive 79/831 Annex V.A8). The conditions noted are these: method [a]: LC-UV, acidic range, 0.1% formic acid in water and acetonitrile as eluent (linear gradient from 10% to 95% acetonitrile); for chromatographic logP: reversed phase HPLC column. The data set is classed as physicochemical. The procedure: Measurement of LogP values was performed according to EEC directive 79/831 Annex V.A8 by HPLC (High Performance Liquid Chromatography) on reversed phase columns with the following methods: • ^[a] LogP value is determined by measurement of LC-UV, in an acidic range, with 0.1% formic acid in water and acetonitrile as eluent (linear gradient from 10% acetonitrile to 95% acetonitrile). • ^[b] LogP value is determined by measurement of LC-UV, in a neutral range, with 0.001 molar ammonium acetate solution in water and acetonitrile as eluent (linear gradient from 10% acetonitrile to 95% acetonitrile). • ^[c] LogP value is determined by measurement of LC-UV, in an acidic range, with 0.1% phosphoric acid and acetonitrile as eluent (linear gradient from 10% acetonitrile to 95% acetonitrile). If more than one LogP value is available within the same method, all the values are given and separated by “+”. Calibration was done with straight-chain alkan2-ones (with 3 to 16 carbon atoms) with known LogP values (measurement of LogP values using retention times with linear interpolation between successive alkanones). Lambda-max-values were determined using UV-spectra from 200 nm to 400 nm and the peak values of the chromatographic signals.

`N#Cc1cncn1CC(O)(CC1CC(c2ccccc2)=NO1)C1(Cl)CC1` (racemic) [Example I-05, 1-[2-(1-chlorocyclopropyl)-2-hydroxy-3-(3-phenyl-4,5-dihydro-1,2-oxazol-5-yl)propyl]-1H-imidazole-5-carbonitrile] yielded a chromatographic logP of 2.71.

As for `N#Cc1cncn1CC(O)(CC1CC(c2ccccc2)=NO1)C1(Cl)CC1` (racemic) [Example I-06, 1-[2-(1-chlorocyclopropyl)-2-hydroxy-3-(3-phenyl-4,5-dihydro-1,2-oxazol-5-yl)propyl]-1H-imidazole-5-carbonitrile], the LogP is 2.59 ^[a].

`N#Cc1cncn1CC(O)(Cc1cc(-c2ccccc2)no1)C1(Cl)CC1` (stereo not drawn) [Example I-03, 1-[2-(1-chlorocyclopropyl)-2-hydroxy-3-(3-phenyl-1,2-oxazol-5-yl)propyl]-1H-imidazole-5-carbonitrile]: the chromatographic logP came out at 2.54.

As usually defined, the chromatographic logP is lipophilicity estimated from chromatographic retention. Read a high chromatographic logP as higher lipophilicity.
